In US7384920B2, “Use of stilbene compounds in the manufacture of medicament for the prevention and treatment of diabetes or retrovirus-associated diseases” (priority 2001, dated 2008):
“And” between values parts separate entries of the source, which are not always exact repeats. Equal values may be shown once.

Columns and labels:
[1] = test system: alloxan induced diabetic mice; assay: Hypoglycemic effect on glucose level of alloxan induced diabetic mice; type: in vivo; conditions: for Postdosing glucose level / Predosing glucose level: alloxan diabetic KM male mice; for Predosing glucose level: before dosing
Method: The metformin or miglucan were used as positive control drugs. And the hypoglycemic effects were evaluated. Hypoglycemic effect of stilbene derivatives on glucose level of alloxan induced diabetic mice.
KM strain male mice which have been fasted for 5-8 hours are used and be injected intravenously of alloxan 80mg/Kg, and 72 hours later, selected those with glucose level>11.0 mmol/L as the diabetic model mice for drug evaluation. Compounds were administered pos for 12 days.

[2] = test system: HBeAg expression; assay: Inhibition of HBeAg expression in 2.2.15 cells (ELISA of supernatant); type: cell-based; conditions: 2.2.15 cells 10^5/ml
Method: Experimental method: use 10% DMEM(with G418 380 μg/ml)to cultivate 2.2.15 cells,
Add 1.5ml of 10^5 cell/ml to 24 well plate for cultivation, change the new cultivate fluid next day and add different amount of compound to it, cultivate each concentration of compound to 3 wells, then collect and freeze 200 μl of supernatant of 2.2.15 cell culture at day 2,4,6 cultivation. Measure HBeAg value of the supernatant by ELISA.
E3 are the same, OD optical density, IR inhibition rate, ctr control IR=[Ctr(P/N)−Agent(P/N)]/[Ctr(P/N)−2.1]

[3] = test system: mice; assay: in vivo; type: in vivo
[4] = test system: normal rats; assay: Effect on glucose tolerance curve of normal rats; type: in vivo; parameters: Auc (area under glucose tolerance curve): unit not given beside the values; conditions: for Glucose (fasted): fasted 8 hours; for Glucose after medication 0′: 0 h after ip glucose 2 g/Kg; for Glucose after medication 30′: 30 min after ip glucose 2 g/Kg; for Glucose after medication 60′: 60 min after ip glucose 2 g/Kg; for Glucose after medication 120′: 120 min after ip glucose 2 g/Kg; for Auc (area under glucose tolerance curve): ip glucose 2 g/Kg, 0-2 hours
Method: In these experiments, stilbene derivatives in examples 1-5 are administrated respectively to KM male mice or Wistar male rats pos for 12 days , then test animals were fasted for 8 hours, examined glucose values, and administrated the test compound. One hour later, administered ip of glucose 2 g/Kg (1.11 mol/L glucose solution). Determining the glucose values at 0, ½, 1, 2 hours after glucose injection and calculating the area under this glucose tolerance curve.

[5] = Solubility in organic solvents (identification); type: physicochemical; conditions: organic solvents as named in the value
[6] = in vivo; type: in vivo; conditions: mouse, in vivo, pos
[7] = normal rats N=6, 75 mg/Kg pos 12 days
[8] = normal rats N=6, 150 mg/Kg pos 12 days

3,3′,4′,5-quadrahydroxystilbene-4′-O-β-D-glucopyranoside [Compound E1]
Postdosing glucose level ([1]; 250 mg/kg pos for 12 days): 21.10 ± 5.73 mmol/L | Postdosing glucose level ([1]; 500 mg/kg pos for 12 days): 16.39 ± 5.32 mmol/L | Postdosing glucose level ([1]; 1000 mg/kg pos for 12 days): 16.54 ± 5.48 mmol/L | Predosing glucose level ([1]; group 250 mg/kg): 22.49 ± 4.63 mmol/L | Predosing glucose level ([1]; group 500 mg/kg): 22.76 ± 3.17 mmol/L | Predosing glucose level ([1]; group 1000 mg/kg): 22.65 ± 3.55 mmol/L | IR (%) inhibition rate of HBeAg ([2]; 10 μg/ml, Day 2): 57.75% | OD (HBeAg ELISA) ([2]; 10 μg/ml, Day 2): 0.244 | IR (%) inhibition rate of HBeAg ([2]; 10 μg/ml, Day 4): 32.68% | OD (HBeAg ELISA) ([2]; 10 μg/ml, Day 4): 0.208 | IR (%) inhibition rate of HBeAg ([2]; 10 μg/ml, Day 6): 51.57% | OD (HBeAg ELISA) ([2]; 10 μg/ml, Day 6): 0.228 | IR (%) inhibition rate of HBeAg ([2]; 20 μg/ml, Day 2): 63.83% | OD (HBeAg ELISA) ([2]; 20 μg/ml, Day 2): 0.224 | IR (%) inhibition rate of HBeAg ([2]; 20 μg/ml, Day 4): −62.75% | OD (HBeAg ELISA) ([2]; 20 μg/ml, Day 4): 0.354 | IR (%) inhibition rate of HBeAg ([2]; 20 μg/ml, Day 6): 48.82% | OD (HBeAg ELISA) ([2]; 20 μg/ml, Day 6): 0.235

COc1cc(C=Cc2cc(O)cc(O[C@@H]3O[C@H](CO)[C@@H](O)[C@H](O)[C@H]3O)c2)ccc1O [Compound E2, 3,4′,5-trihydroxy-3′-methyloxy stilbene-3-O-β-D glucoside]
Postdosing glucose level ([1]; 250 mg/kg pos for 12 days): 22.61 ± 6.07 mmol/L | Postdosing glucose level ([1]; 500 mg/kg pos for 12 days): 28.96 ± 8.21 mmol/L | Postdosing glucose level ([1]; 1000 mg/kg pos for 12 days): 24.64 ± 2.49 mmol/L | Predosing glucose level ([1]; group 250 mg/kg): 21.43 ± 5.04 mmol/L | Predosing glucose level ([1]; group 500 mg/kg): 22.98 ± 5.94 mmol/L | Predosing glucose level ([1]; group 1000 mg/kg): 21.38 ± 5.75 mmol/L | MTD ([3]; mice ♀, pos): >16.872 g/kg | MTD ([3]; mice ♂, pos): >18.301 g/kg | Toxicity (in words) ([3]; mice, pos, summary of Table 3): very low | IR (%) inhibition rate of HBeAg ([2]; 10 μg/ml, Day 2): 71.43% | OD (HBeAg ELISA) ([2]; 10 μg/ml, Day 2): 0.199 | IR (%) inhibition rate of HBeAg ([2]; 10 μg/ml, Day 4): 45.75% | OD (HBeAg ELISA) ([2]; 10 μg/ml, Day 4): 0.188 | IR (%) inhibition rate of HBeAg ([2]; 10 μg/ml, Day 6): 56.69% | OD (HBeAg ELISA) ([2]; 10 μg/ml, Day 6): 0.251 | IR (%) inhibition rate of HBeAg ([2]; 20 μg/ml, Day 2): 40.43% | OD (HBeAg ELISA) ([2]; 20 μg/ml, Day 2): 0.301 | IR (%) inhibition rate of HBeAg ([2]; 20 μg/ml, Day 4): 9.15% | OD (HBeAg ELISA) ([2]; 20 μg/ml, Day 4): 0.244 | IR (%) inhibition rate of HBeAg ([2]; 20 μg/ml, Day 6): 4.72% | OD (HBeAg ELISA) ([2]; 20 μg/ml, Day 6): 0.347

COc1ccc(C=Cc2cc(O)cc(O[C@@H]3O[C@H](CO)[C@@H](O)[C@H](O)[C@H]3O)c2)cc1 [Compound E3, 3,5-dihydroxy-4′-methyloxy stilbene-3-O-β-O-D glucoside]
MTD ([3]; mice ♀, pos): >11.200 g/kg | MTD ([3]; mice ♂, pos): >11.000 g/kg | Toxicity (in words) ([3]; mice, pos, summary of Table 3): very low | IR (%) inhibition rate of HBeAg ([2]; 10 μg/ml, Day 2): 72.95% | OD (HBeAg ELISA) ([2]; 10 μg/ml, Day 2): 0.194 | IR (%) inhibition rate of HBeAg ([2]; 10 μg/ml, Day 4): 39.87% | OD (HBeAg ELISA) ([2]; 10 μg/ml, Day 4): 0.197 | IR (%) inhibition rate of HBeAg ([2]; 10 μg/ml, Day 6): 71.65% | OD (HBeAg ELISA) ([2]; 10 μg/ml, Day 6): 0.177 | IR (%) inhibition rate of HBeAg ([2]; 20 μg/ml, Day 2): 51.37% | OD (HBeAg ELISA) ([2]; 20 μg/ml, Day 2): 0.265 | IR (%) inhibition rate of HBeAg ([2]; 20 μg/ml, Day 4): 1.31% | OD (HBeAg ELISA) ([2]; 20 μg/ml, Day 4): 0.256 | IR (%) inhibition rate of HBeAg ([2]; 20 μg/ml, Day 6): 48.43% | OD (HBeAg ELISA) ([2]; 20 μg/ml, Day 6): 0.236

OC[C@H]1OC(Oc2cc(O)cc(C=Cc3ccc(O)cc3)c2)[C@H](O)[C@@H](O)[C@@H]1O (some centres unmarked) [Compound E5]
Postdosing glucose level ([1]; 75 mg/kg pos for 12 days): 21.79 ± 9.39 mmol/L | Postdosing glucose level ([1]; 150 mg/kg pos for 12 days): 21.05 ± 4.63 mmol/L | Predosing glucose level ([1]; group 75 mg/kg): 17.46 ± 5.86 mmol/L | Predosing glucose level ([1]; group 150 mg/kg): 17.92 ± 5.35 mmol/L | MTD ([3]; mouse, in vivo): >10.00 g/kg | Toxicity (in words) ([3]; mouse, in vivo): very low | Glucose (fasted) [4, 7]: 4.6 ± 0.5 mmol/L | Glucose after medication 0′ ([4]; normal rats N=6, 75 mg/Kg): 4.9 ± 0.7 mmol/L | Glucose after medication 30′ ([4]; normal rats N=6, 75 mg/Kg): 12.0 ± 1.5 mmol/L | Glucose after medication 60′ ([4]; normal rats N=6, 75 mg/Kg): 7.4 ± 0.8 mmol/L | Glucose after medication 120′ ([4]; normal rats N=6, 75 mg/Kg): 6.7 ± 0.7 mmol/L | Auc (area under glucose tolerance curve) ([4]; normal rats N=6, 75 mg/Kg): 966.8 ± 71.6 | Glucose (fasted) [4, 8]: 4.7 ± 0.8 mmol/L | Glucose after medication 0′ ([4]; normal rats N=6, 150 mg/Kg): 4.3 ± 0.9 mmol/L | Glucose after medication 30′ ([4]; normal rats N=6, 150 mg/Kg): 10.2 ± 1.5 mmol/L | Glucose after medication 60′ ([4]; normal rats N=6, 150 mg/Kg): 6.3 ± 1.1 mmol/L | Glucose after medication 120′ ([4]; normal rats N=6, 150 mg/Kg): 5.7 ± 1.1 mmol/L | Auc (area under glucose tolerance curve) ([4]; normal rats N=6, 150 mg/Kg): 836.3 ± 112.1 | Solubility (in words) [5]: easily soluble in acetone

Oc1ccc(/C=C/c2cc(O)cc(O)c2)cc1 [Compound E]
Postdosing glucose level ([1]; 75 mg/kg pos for 12 days): 20.01 ± 7.1 mmol/L | Postdosing glucose level ([1]; 150 mg/kg pos for 12 days): 18.36 ± 6.25 mmol/L | Predosing glucose level ([1]; group 75 mg/kg): 17.27 ± 4.60 mmol/L | Predosing glucose level ([1]; group 150 mg/kg): 17.87 ± 4.86 mmol/L | Toxicity (in words) ([3]; mouse, in vivo): very low | MTD ([6]; female, mice ♀): > 6100 mg/kg | MTD ([6]; male, mice ♂): > 6000 mg/kg | Glucose (fasted) [4, 7]: 5.3 ± 0.9 mmol/L | Glucose after medication 0′ ([4]; normal rats N=6, 75 mg/Kg): 4.9 ± 0.7 mmol/L | Glucose after medication 30′ ([4]; normal rats N=6, 75 mg/Kg): 12.1 ± 2.3 mmol/L | Glucose after medication 60′ ([4]; normal rats N=6, 75 mg/Kg): 7.5 ± 0.8 mmol/L | Glucose after medication 120′ ([4]; normal rats N=6, 75 mg/Kg): 6.2 ± 0.9 mmol/L | Auc (area under glucose tolerance curve) ([4]; normal rats N=6, 75 mg/Kg): 961.1 ± 115.9 | Glucose (fasted) [4, 8]: 5.8 ± 0.6 mmol/L | Glucose after medication 0′ ([4]; normal rats N=6, 150 mg/Kg): 4.2 ± 0.4 mmol/L | Glucose after medication 30′ ([4]; normal rats N=6, 150 mg/Kg): 9.5 ± 2.1 mmol/L | Glucose after medication 60′ ([4]; normal rats N=6, 150 mg/Kg): 6.1 ± 1.2 mmol/L | Glucose after medication 120′ ([4]; normal rats N=6, 150 mg/Kg): 4.7 ± 0.7 mmol/L | Auc (area under glucose tolerance curve) ([4]; normal rats N=6, 150 mg/Kg): 760.2 ± 119.6 | Solubility (in words) [5]: easily soluble in methyl alcohol, ethyl alcohol and acetone

CN(C)C(=N)N=C(N)N [Metformin, reference compound]
Postdosing glucose level ([1]; 500 mg/kg pos for 12 days, 500 mg/kg): 17.49 ± 5.33 mmol/L and 17.64 ± 1.00 mmol/L and 15.16 ± 8.53 mmol/L | Predosing glucose level ([1]; group 500 mg/kg): 22.81 ± 4.89 mmol/L and 21.15 ± 3.85 mmol/L and 17.10 ± 4.84 mmol/L | Hypoglycemic effect (in words) ([1]; alloxan induced diabetic mice, summary of Table 1): effective

COc1ccc(Cl)cc1C(=O)NCCc1ccc(S(=O)(=O)NC(=O)NC2CCCCC2)cc1 [Miglucan, reference compound]
Glucose after medication 0′ ([4]; normal rats N=6, 100 mg/Kg): 2.7 ± 0.8 mmol/L and 3.4 ± 0.4 mmol/L | Glucose after medication 30′ ([4]; normal rats N=6, 100 mg/Kg): 11.5 ± 0.6 mmol/L and 8.7 ± 3.5 mmol/L | Glucose after medication 60′ ([4]; normal rats N=6, 100 mg/Kg): 7.8 ± 6.2 mmol/L and 5.3 ± 2.1 mmol/L | Glucose after medication 120′ ([4]; normal rats N=6, 100 mg/Kg): 4.1 ± 1.7 mmol/L and 3.8 ± 1.4 mmol/L | Auc (area under glucose tolerance curve) ([4]; normal rats N=6, 100 mg/Kg): 883.1 ± 43.5 and 663.8 ± 220.2
